# Assay results reported in publication PMC5113208 (2016).
# Test system: RNA Spinach (RNA, aptamer) GGACGCGACCGAAAUGGUGAAGGACGGGUCCAGUGCGAAACACGCACUGUUGAGUAGAGUGUGAGCUCCGUAACUGGUCGCGUC
# Experiment: fluorescence titration
# Conditions: 140 mM KCl, 1 mM MgCl2; 10 mM NaH2PO4 pH 7.2, 0.05% Tween-20, room temperature
compound,measurement,value
CC1=N/C(=C\c2cc(F)c(O)c(F)c2)C(=O)N1C,KD,420 ± 40 nM
